Source: PubChem BioAssay AID248 (DTP/NCI, 2004)
Several values for one entry are separate records, joined by “and”; a condition that tells them apart may be missing. Identical values can stand only once. Toxic doses and inconclusive results are not listed. Rule as the data show it: active = T/C of 150% or more; inactive = T/C below 125%.

Tested on: L1210 leukemia ip in BDF1 mice, survival T/C
Test: NCI In Vivo Anticancer Drug Screen. Data for tumor model L1210 Leukemia (intraperitoneal) in B6D2F1 (BDF1) mice
Conditions: endpoint: mean survival time, higher = longer survival
Summary of the method: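 Ratio derived from survival: compound-dosed mice over vehicle-dosed mice, all bearing a transplantable tumor.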

[1] = dose: 100.0 mg/kg/injection, schedule: Q04DX003 (ip), vehicle: saline with Tween-80
[2] = dose: 200.0 mg/kg/injection, schedule: Q04DX003 (ip), vehicle: saline with Tween-80
[3] = dose: 25.0 mg/kg/injection, schedule: Q01DX009 (ip), vehicle: Klucel (hydroxypropylcellulose) (HPC)
[4] = dose: 100.0 mg/kg/injection, schedule: Q01DX009 (ip), vehicle: Klucel (hydroxypropylcellulose) (HPC)
[5] = dose: 100.0 mg/kg/injection, schedule: Q04DX003 (ip), vehicle: Klucel (hydroxypropylcellulose) (HPC)
[6] = dose: 200.0 mg/kg/injection, schedule: Q04DX003 (ip), vehicle: Klucel (hydroxypropylcellulose) (HPC)
[7] = dose: 400.0 mg/kg/injection, schedule: Q04DX003 (ip), vehicle: Klucel (hydroxypropylcellulose) (HPC)
[8] = dose: 200.0 mg/kg/injection, schedule: Q01DX009 (ip), vehicle: Klucel (hydroxypropylcellulose) (HPC)
[9] = dose: 100.0 mg/kg/injection, schedule: Q01DX001 (ip), vehicle: carboxymethylcellulose (CMC)
[10] = dose: 200.0 mg/kg/injection, schedule: Q01DX001 (ip), vehicle: carboxymethylcellulose (CMC)
[11] = dose: 400.0 mg/kg/injection, schedule: Q01DX001 (ip), vehicle: carboxymethylcellulose (CMC)
[12] = dose: 400.0 mg/kg/injection, schedule: Q01DX009 (ip), vehicle: Klucel (hydroxypropylcellulose) (HPC)
[13] = dose: 100.0 mg/kg/injection, schedule: Q01DX001 (ip), vehicle: saline
[14] = dose: 200.0 mg/kg/injection, schedule: Q01DX001 (ip), vehicle: saline
[15] = dose: 400.0 mg/kg/injection, schedule: Q01DX001 (ip), vehicle: saline
[16] = dose: 100.0 mg/kg/injection, schedule: Q04DX002 (ip), vehicle: Klucel (hydroxypropylcellulose) (HPC)
[17] = dose: 200.0 mg/kg/injection, schedule: Q04DX002 (ip), vehicle: Klucel (hydroxypropylcellulose) (HPC)
[18] = dose: 400.0 mg/kg/injection, schedule: Q04DX002 (ip), vehicle: Klucel (hydroxypropylcellulose) (HPC)
[19] = dose: 75.0 mg/kg/injection, schedule: Q01DX009 (ip), vehicle: Klucel (hydroxypropylcellulose) (HPC)
[20] = dose: 150.0 mg/kg/injection, schedule: Q01DX009 (ip), vehicle: Klucel (hydroxypropylcellulose) (HPC)
[21] = dose: 300.0 mg/kg/injection, schedule: Q01DX009 (ip), vehicle: Klucel (hydroxypropylcellulose) (HPC)

Measured: T/C

COC(=O)c1cc(Cl)cc(C(=O)OC)c1
inactive: [1] 96 % of control | [2] 93 % of control | dose: 400.0 mg/kg/injection, schedule: Q04DX003 (ip), vehicle: saline with Tween-80 93 % of control

CCCCCN(CCCCC)CC(O)c1cc2c(c3ccccc13)CCCC2 (stereo unspecified)
inactive: [3] 87 % of control | dose: 50.0 mg/kg/injection, schedule: Q01DX009 (ip), vehicle: Klucel (hydroxypropylcellulose) (HPC) 93 % of control | [4] 90 % of control

COC(=O)CN(C(=S)c1ccccc1)c1ccccc1
inactive: [5] 104 % of control | [6] 96 % of control | [7] 94 % of control

NNC(=O)Cc1nc2ccccc2[nH]c1=O
inactive: [4] 102 % of control | [5] 106 % of control | [8] 96 % of control | [6] 95 % of control | [7] 98 % of control

O=C1c2ccccc2-c2cc(Cl)c(N=Cc3ccc4c(c3)OCO4)cc21
inactive: [9] 98 % of control | [10] 102 % of control | [11] 109 % of control

Cc1ccnc(NS(=O)(=O)c2ccc(N=Nc3c(N)[nH]c(=S)[nH]c3=O)cc2)n1
inactive: [9] 97 % of control | [10] 95 % of control | [11] 95 % of control

CCOc1ccc(N2C(C#N)c3ccccc3OC2c2ccccc2O)cc1 (stereo unspecified)
inactive: [4] 97 % of control | [8] 97 % of control | [12] 101 % of control

S=C(NCc1ccncc1)Nc1ccccc1Cl
inactive: [4] 101 % of control | [8] 95 % of control | [12] 98 % of control

O=c1ccc([N+](=O)[O-])c[nH]1.[Ag]
inactive: dose: 6.25 mg/kg/injection, schedule: Q01DX009 (ip), vehicle: Klucel (hydroxypropylcellulose) (HPC) 86 % of control | dose: 12.5 mg/kg/injection, schedule: Q01DX009 (ip), vehicle: Klucel (hydroxypropylcellulose) (HPC) 86 % of control | dose: 12.5 mg/kg/injection, schedule: Q04DX003 (ip), vehicle: Klucel (hydroxypropylcellulose) (HPC) 88 % of control | [3] 95 % of control | dose: 25.0 mg/kg/injection, schedule: Q04DX003 (ip), vehicle: Klucel (hydroxypropylcellulose) (HPC) 99 % of control

O=C1CC2CCCC(CCO)(C2)N1 (stereo unspecified)
inactive: [9] 91 % of control | [10] 94 % of control | [11] 103 % of control

O=c1[nH]c(=O)n(C2OC(CO)C(O)C2O)c2ccccc12 (stereo unspecified)
inactive: [13] 102 % of control | [14] 93 % of control | [15] 93 % of control

COC(=O)c1c(Cl)c(Cl)c(Cl)c(Cl)c1C(=O)OC
inactive: [4] 96 % of control | dose: 100.0 mg/kg/injection, schedule: Q01DX009 (ip), vehicle: saline with Tween-80 96 % of control | [5] 95 % of control | [1] 100 % of control | [8] 102 % of control | dose: 200.0 mg/kg/injection, schedule: Q01DX009 (ip), vehicle: saline with Tween-80 91 % of control | [6] 96 % of control | [2] 100 % of control | [12] 107 % of control | [7] 95 % of control

CC(C)(C)N1CCC1C(=O)O (stereo unspecified)
inactive: [13] 92 % of control | [14] 97 % of control | [15] 97 % of control

CC(C)Cc1ncc(CCCN=C(N)N)[nH]c1=O
inactive: dose: 12.5 mg/kg/injection, schedule: Q04DX002 (ip), vehicle: saline with Tween-80 106 % of control | dose: 25.0 mg/kg/injection, schedule: Q04DX002 (ip), vehicle: saline with Tween-80 98 % of control | dose: 50.0 mg/kg/injection, schedule: Q04DX002 (ip), vehicle: saline with Tween-80 95 % of control | dose: 100.0 mg/kg/injection, schedule: Q04DX002 (ip), vehicle: saline with Tween-80 103 % of control

COc1ccccc1NC(=O)Oc1ccc(-c2ccccc2)cc1Br
inactive: [4] 92 % of control | [5] 97 % of control | [8] 97 % of control | [6] 95 % of control | [12] 101 % of control | [7] 93 % of control

O=c1[nH]cnc2c1ncn2CCCCc1ccccc1
inactive: [16] 108 % of control | [17] 101 % of control | [18] 105 % of control

CCCCN(C)N=Nc1ccc(C(=N)N)cc1
inactive: dose: 5.0 mg/kg/injection, schedule: Q01DX001 (ip), vehicle: carboxymethylcellulose (CMC) 106 % of control | dose: 10.0 mg/kg/injection, schedule: Q01DX001 (ip), vehicle: carboxymethylcellulose (CMC) 100 % of control | dose: 20.0 mg/kg/injection, schedule: Q01DX001 (ip), vehicle: carboxymethylcellulose (CMC) 100 % of control | dose: 40.0 mg/kg/injection, schedule: Q01DX001 (ip), vehicle: carboxymethylcellulose (CMC) 95 % of control | dose: 80.0 mg/kg/injection, schedule: Q01DX001 (ip), vehicle: carboxymethylcellulose (CMC) 101 % of control

O=C1c2ccccc2C(=Cc2c3ccccc3cc3ccccc23)c2ccccc21
inactive: dose: 25.0 mg/kg/injection, schedule: Q04DX002 (ip), vehicle: Klucel (hydroxypropylcellulose) (HPC) 97 % of control | dose: 50.0 mg/kg/injection, schedule: Q04DX002 (ip), vehicle: Klucel (hydroxypropylcellulose) (HPC) 106 % of control | [16] 94 % of control

CN=C(NC)c1ccc(NC(=O)c2ccc(C(=O)Nc3ccc(C(=NC)NC)cc3)c([N+](=O)[O-])c2)cc1
inactive: dose: 1.88 mg/kg/injection, schedule: Q01DX Z (ip), vehicle: saline 100 % of control | dose: 3.75 mg/kg/injection, schedule: Q01DX Z (ip), vehicle: saline 111 % of control | dose: 7.5 mg/kg/injection, schedule: Q01DX Z (ip), vehicle: saline 108 % of control

CC[N+](C)(C)CCCOC(=O)C1C2CC3OC(=O)C1C3C2 (stereo unspecified)
inactive: dose: 25.0 mg/kg/injection, schedule: Q04DX003 (ip), vehicle: saline 101 % of control | dose: 50.0 mg/kg/injection, schedule: Q04DX003 (ip), vehicle: saline 105 % of control | dose: 100.0 mg/kg/injection, schedule: Q04DX003 (ip), vehicle: saline 103 % of control and 108 % of control | dose: 200.0 mg/kg/injection, schedule: Q04DX003 (ip), vehicle: saline 97 % of control

c1ccc(OCCOCCOc2ccccc2)cc1
inactive: [19] 96 % of control | [16] 98 % of control | [20] 114 % of control | [17] 102 % of control | [21] 96 % of control | [18] 91 % of control

O=C(COc1ccc(Cl)cc1C(=O)O)NCc1ccc([N+](=O)[O-])cc1
inactive: [19] 106 % of control | [20] 104 % of control | [21] 101 % of control

Cc1ccc(-c2ccccc2)n1-c1ccccc1O
inactive: dose: 50.0 mg/kg/injection, schedule: Q01DX001 (ip), vehicle: other 104 % of control | dose: 100.0 mg/kg/injection, schedule: Q01DX001 (ip), vehicle: other 102 % of control | dose: 200.0 mg/kg/injection, schedule: Q01DX001 (ip), vehicle: other 96 % of control | dose: 400.0 mg/kg/injection, schedule: Q01DX001 (ip), vehicle: other 98 % of control

O=C(O)c1c[nH]c(=O)c([N+](=O)[O-])c1
inactive: dose: 50.0 mg/kg/injection, schedule: Q04DX003 (ip), vehicle: Klucel (hydroxypropylcellulose) (HPC) 97 % of control | [5] 91 % of control | [6] 92 % of control

CC(=O)CC(=O)Nc1cccc([N+](=O)[O-])c1
inactive: [4] 98 % of control | [5] 97 % of control | [6] 91 % of control | [7] 93 % of control

COc1cccc(NC(=O)NCCCl)c1
inactive: dose: 12.5 mg/kg/injection, schedule: Q01DX009 (ip), vehicle: saline with Tween-80 96 % of control | dose: 25.0 mg/kg/injection, schedule: Q01DX009 (ip), vehicle: saline with Tween-80 86 % of control | dose: 50.0 mg/kg/injection, schedule: Q01DX009 (ip), vehicle: saline with Tween-80 90 % of control
